From ChEMBL document CHEMBL2331519, “Sesquiterpenes from the rhizomes of Curcuma heyneana” (J Nat Prod, 2013)

Experiments:
[1] = molecular target: T1, Tyrosine-protein phosphatase non-receptor type 1 (Homo sapiens) (UniProt P18031); test: Inhibition of PTP1B (unknown origin) assessed as decrease in p-nitrophenol production from pNPP substrate at 25 ug/ml after 30 mins by HTS7000 bioassay reader analysis
T1 sequence (whole entry): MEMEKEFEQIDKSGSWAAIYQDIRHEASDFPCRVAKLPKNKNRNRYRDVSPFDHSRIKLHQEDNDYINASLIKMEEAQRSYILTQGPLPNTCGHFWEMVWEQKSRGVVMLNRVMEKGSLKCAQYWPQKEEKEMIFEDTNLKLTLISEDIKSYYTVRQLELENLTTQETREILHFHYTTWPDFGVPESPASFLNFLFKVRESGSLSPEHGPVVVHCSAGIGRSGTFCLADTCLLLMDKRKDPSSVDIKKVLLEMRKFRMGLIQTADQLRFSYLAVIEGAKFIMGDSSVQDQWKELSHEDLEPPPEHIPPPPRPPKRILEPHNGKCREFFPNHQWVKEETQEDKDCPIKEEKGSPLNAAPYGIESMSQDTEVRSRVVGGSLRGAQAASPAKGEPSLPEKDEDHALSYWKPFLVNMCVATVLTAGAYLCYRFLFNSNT

[2] = molecular target: T2, Tyrosine-protein phosphatase non-receptor type 1 (Homo sapiens, UniProt P18031); test: Inhibition of PTP1B (unknown origin) assessed as decrease in p-nitrophenol production from pNPP substrate after 30 mins by HTS7000 bioassay reader analysis
T2 sequence (P18031 whole entry): T1 sequence (whole entry)

[3] = molecular target: T3, Tyrosine-protein phosphatase non-receptor type 2 (Homo sapiens) (UniProt P17706); test: (§1) Inhibition of TCPTP (unknown origin) assessed as decrease in p-nitrophenol production from pNPP substrate after 30 mins by HTS7000 bioassay reader analysis
T3 sequence (whole entry): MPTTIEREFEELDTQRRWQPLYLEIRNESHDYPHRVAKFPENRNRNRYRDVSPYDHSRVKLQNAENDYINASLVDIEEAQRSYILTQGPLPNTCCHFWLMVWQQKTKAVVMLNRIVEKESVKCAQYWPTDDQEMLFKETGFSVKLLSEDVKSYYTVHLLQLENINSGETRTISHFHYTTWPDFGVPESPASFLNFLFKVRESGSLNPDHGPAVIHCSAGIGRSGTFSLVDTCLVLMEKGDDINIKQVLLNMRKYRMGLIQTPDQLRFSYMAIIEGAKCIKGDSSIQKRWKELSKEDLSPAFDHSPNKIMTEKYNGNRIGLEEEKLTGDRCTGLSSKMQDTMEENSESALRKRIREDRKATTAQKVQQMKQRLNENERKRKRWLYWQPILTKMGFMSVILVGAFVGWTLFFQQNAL

[4] = molecular target: T4, Tyrosine-protein phosphatase non-receptor type 2 (Homo sapiens, UniProt P17706); test: as §1
T4 sequence (P17706 whole entry): T3 sequence (whole entry)

| SMILES | inhibition [1] [%] | IC50 [2] [µM] | inhibition [3] | IC50 [4] [µM] |
| --- | --- | --- | --- | --- |
| C=C(C)[C@@H]1CC[C@](C)(O)[C@H]2CC[C@](C)(O)[C@H]2C1 | < 65 |  |  |  |
| C=C(C)[C@H]1CC[C@@](C)(O)[C@H]2CC[C@](C)(O)[C@H]2C1 | < 65 |  |  |  |
| CCCCCCCCCCCCCCCC(=O)C1=C(O)[C@@H](CO)OC1=O | 99.1 | 5.62 |  | 5.1 |
| C=C1CC[C@H]2C(C)(C)CCC[C@]2(C)[C@H]1/C=C/C(C)=O | 88.8 | 14.7 | Dose-dependent effect | 9.3 |
| C=C(C)[C@@H]1CC[C@H](C)[C@@]12C=C(C(C)(C)O)C(=O)O2 | < 65 |  |  |  |
| C[C@H]1[C@H](C)CC[C@]2(C(=O)O)CC[C@]3(C)C(=CC[C@@H]4[C@@]5(C)CC[C@H](O)C(C)(C)[C@@H]5CC[C@]43C)[C@H]12 [URSOLIC ACID] | 96.7 |  |  | 2.4 |
| C=C(C)[C@@H]1CC[C@@]2(C)[C@H](O)CC[C@@](C)(O)[C@@H]2C1 | < 65 |  |  |  |
| C=C1CC[C@H]2C(C)(C)CCC[C@]2(C)[C@H]1C/C=C(\C=O)CC(=O)O [ZERUMIN A] | 96.7 | 10.4 | Dose-dependent effect | 7.4 |
| C/C1=C/C(=O)/C(C(C)(C)O)=C\C=C(\C)C(=O)CC1 | < 65 |  |  |  |
| CC1=C[C@@]2(O)O[C@@]3(C/C2=C(/C)CO)[C@@H](C)CC[C@@H]13 | < 65 |  |  |  |
| C=C(C)[C@@H]1CC[C@@H](C)[C@@]12C=C(C(C)(C)O)C(=O)O2 | < 65 |  |  |  |
| C=C1C[C@]2(O)O[C@@]3(CC2=C(C)C)[C@@H](C)CC[C@@H]13 | < 65 |  |  |  |

Next, values leading:

| inhibition [1] [%] | IC50 [2] [µM] | inhibition [3] | IC50 [4] [µM] | SMILES |
| --- | --- | --- | --- | --- |
| < 65 |  |  |  | CC(C)=C1C[C@@H](O)[C@](C)(O)CC[C@H](O)/C(C)=C\C1=O |
| < 65 |  |  |  | CC1=CC(=O)[C@@]2(C[C@]3(O)[C@@H](C)CC[C@@H]13)OC2(C)C |
| 77.5 | 42.5 | Dose-dependent effect | 62 | CC(C)=C1C[C@@H](O)[C@@](C)(O)CC[C@H](O)/C(C)=C\C1=O [HEYNEANONE A] |
| < 65 |  |  |  | C=C(C)[C@@H]1CC[C@]2(C)OC(=O)C(=C(C)C)C[C@@H]12 |
| < 65 |  |  |  | CC(C)=C1C[C@H]2[C@@H](CC[C@]2(C)O)[C@](C)(O)CC1=O |
| < 65 |  |  |  | CC(C)=C1C[C@H]2[C@@H](CC[C@]2(C)O)C(CO)=CC1=O |
| 69.3 | 45.6 | Dose-dependent effect | 26.8 | CC1=CC(=O)C(=C(C)C)C[C@H]2[C@H]1CC[C@]2(C)O [PROCURCUMENOL] |
| 87.5 | 35.7 | Dose-dependent effect | 45.9 | CC1=CC(=O)C(=C(C)C)C[C@@H]2[C@@](C)(O)CC[C@]12O [AERUGIDIOL] |
| < 65 |  |  |  | CC(C)=C1C[C@H]2[C@H](CC[C@]2(C)O)[C@@](C)(O)CC1=O |
| 86.2 | 35.2 | Dose-dependent effect | 36.7 | CC(C)=C1C[C@@H](O)[C@@](C)(O)CC[C@@H](O)/C(C)=C\C1=O [HEYNEANONES C] |
| < 65 |  |  |  | C=C(C)[C@H]1CC[C@H](C)[C@]12CC(=C(C)C)C(=O)O2 |
| < 65 |  |  |  | C=C(C)[C@@H]1CC[C@H](C)[C@]12CC(=C(C)C)C(=O)O2 |
| < 65 |  |  |  | C=C(C)[C@@H]1CC[C@@]2(C)OC(=O)C(=C(C)C)C[C@@H]12 |
| 86 | 35.1 | Dose-dependent effect | 15.7 | CC(C)=C1C[C@H]2[C@@H](CC[C@@]2(C)O)[C@@](C)(O)CC1=O |
